Patent US7423159B2, “Agent for preventing or treating neuropathy” (Takeda Pharmaceutical Company Limited, priority 2002, dated 2008)

Compound | melting point [°C]
CCc1coc(Cc2ccc(NC(=O)/C=C/c3cnn(C)c3-c3ccc(F)cc3)cc2)n1 [Example 98, (2E)-N-{4-[(4-Ethyl-1,3-oxazol-2-yl)methyl]phenyl}-3-[5-(4-fluorophenyl)-1-methyl-1H-pyrazol-4-yl]acrylamide] | 174 to 175
CCc1nc(Cc2ccc(NC(=O)/C=C/c3cnn(C)c3-c3ccc(F)cc3)cc2)cs1 [Example 99, (2E)-N-{4-[(2-Ethyl-1,3-thiazol-4-yl)methyl]phenyl}-3-[5-(4-fluorophenyl)-1-methyl-1H-pyrazol-4-yl]acrylamide] | 178 to 179
Cc1nc(Cc2ccc(NC(=O)/C=C/c3cnn(C)c3-c3ccc(F)cc3)cc2)cs1 [Example 100, (2E)-3-[5-(4-Fluorophenyl)-1-methyl-1H-pyrazol-4-yl]-N-{4-[(2-methyl-1,3-thiazol-4-yl)methyl]phenyl}acrylamide] | 192 to 193
Cn1nnnc1Cc1ccc(NC(=O)/C=C/c2cnn(C)c2-c2ccc(F)cc2)cc1 [Example 101, (2E)-3-[5-(4-Fluorophenyl)-1-methyl-1H-pyrazol-4-yl]-N-{4-[(1-methyl-1H-tetrazol-5-yl)methyl]phenyl}acrylamide] | 243 to 244
Cn1nnc(Cc2ccc(NC(=O)/C=C/c3cnn(C)c3-c3ccc(F)cc3)cc2)n1 [Example 102, (2E)-3-[5-(4-Fluorophenyl)-1-methyl-1H-pyrazol-4-yl]-N-{4-[(2-methyl-2H-tetrazol-5-yl)methyl]phenyl}acrylamide] | 159 to 161
CCn1nnnc1Cc1ccc(NC(=O)/C=C/c2cnn(C)c2-c2ccc(F)cc2)cc1 [Example 103, (2E)-N-{4-[(1-Ethyl-1H-tetrazol-5-yl)methyl]phenyl}-3-[5-(4-fluorophenyl)-1-methyl-1H-pyrazol-4-yl]acrylamide] | 206 to 207
CCn1nnc(Cc2ccc(NC(=O)/C=C/c3cnn(C)c3-c3ccc(F)cc3)cc2)n1 [Example 104, (2E)-N-{4-[(2-Ethyl-2H-tetrazol-5-yl)methyl]phenyl}-3-[5-(4-fluorophenyl)-1-methyl-1H-pyrazol-4-yl]acrylamide] | 187 to 188
Cn1ncc(/C=C/C(=O)Nc2ccc(CC(C)(C)C)cc2)c1-c1ccc(F)cc1 [Example 105, (2E)-3-[5-(4-Fluorophenyl)-1-methyl-1H-pyrazol-4-yl]-N-(4-neopentylphenyl)acrylamide] | 150 to 151
Cn1ncc(/C=C/C(=O)Nc2ccc3[nH]c(=O)oc3c2)c1-c1ccc(F)cc1 [Example 106, (2E)-3-[5-(4-Fluorophenyl)-1-methyl-1H-pyrazol-4-yl]-N-(2-oxo-2,3-dihydro-1,3-benzoxazol-6-yl)acrylamide] | > 300
Cn1ncc(/C=C/C(=O)Nc2ccc(Cc3nc4ccccc4o3)cc2)c1-c1ccc(F)cc1 [Example 107, (2E)-N-[4-(1,3-Benzoxazol-2-ylmethyl)phenyl]-3-[5-(4-fluorophenyl)-1-methyl-1H-pyrazol-4-yl]acrylamide] | 195 to 196
Cn1ncc(/C=C/C(=O)Nc2ccc(Cc3nc4ccccc4[nH]3)cc2)c1-c1ccc(F)cc1 [Example 108, (2E)-N-[4-(1H-Benzimidazol-2-ylmethyl)phenyl]-3-[5-(4-fluorophenyl)-1-methyl-1H-pyrazol-4-yl]acrylamide] | > 300
CCOC(=O)Cc1ccc(NC(=O)/C=C/c2cnn(C)c2-c2ccc(F)cc2)cc1 [Example 109, ethyl [4-({(2E)-3-[5-(4-fluorophenyl)-1-methyl-1H-pyrazol-4-yl]prop-2-enoyl}amino)phenyl]acetate] | 177 to 178
CCN1C(=O)SC(Cc2ccc(NC(=O)/C=C/c3cnn(C)c3-c3ccc(F)cc3)cc2)C1=O (centres unmarked) [Example 111, (2E)-N-{4-[(3-Ethyl-2,4-dioxo-1,3-thiazolidin-5-yl)methyl]phenyl}-3-[5-(4-fluorophenyl)-1-methyl-1H-pyrazol-4-yl]acrylamide] | 214 to 215
CCc1csc(CCc2ccc(NC(=O)/C=C/c3cnn(C)c3-c3ccc(F)cc3)cc2)n1 [Example 113, (2E)-N-{4-[2-(4-Ethyl-1,3-thiazol-2-yl)ethyl]phenyl}-3-[5-(4-fluorophenyl)-1-methyl-1H-pyrazol-4-yl]acrylamide] | 200 to 201
Cn1ncc(/C=C/C(=O)Nc2ccc(CC(C)(C)O)cc2)c1-c1ccc(F)cc1 [Example 114, (2E)-3-[5-(4-Fluorophenyl)-1-methyl-1H-pyrazol-4-yl]-N-[4-(2-hydroxy-2-methylpropyl)phenyl]acrylamide] | 188 to 189
CCC(O)(CC)Cc1ccc(NC(=O)/C=C/c2cnn(C)c2-c2ccc(F)cc2)cc1 [Example 115, (2E)-N-[4-(2-Ethyl-2-hydroxybutyl)phenyl]-3-[5-(4-fluorophenyl)-1-methyl-1H-pyrazol-4-yl]acrylamide] | 150 to 151
Cc1nc(Cc2ccc(NC(=O)/C=C/c3cnn(C)c3-c3ccc(F)cc3)cc2)no1 [Example 116, (2E)-3-[5-(4-Fluorophenyl)-1-methyl-1H-pyrazol-4-yl]-N-{4-[(5-methyl-1,2,4-oxadiazol-3-yl)methyl]phenyl}acrylamide] | 183 to 184
CC(=O)N(C)Cc1ccc(NC(=O)/C=C/c2cnn(C)c2-c2ccc(F)cc2)cc1 [Example 117, (2E)-N-(4-{[Acetyl(methyl)amino]methyl}phenyl)-3-[5-(4-fluorophenyl)-1-methyl-1H-pyrazol-4-yl]acrylamide] | 192 to 193
CCc1nc(Cc2ccc(NC(=O)/C=C/c3cnn(C)c3-c3ccc(F)cc3)cc2)no1 [Example 118, (2E)-N-{4-[(5-Ethyl-1,2,4-oxadiazol-3-yl)methyl]phenyl}-3-[5-(4-fluorophenyl)-1-methyl-1H-pyrazol-4-yl]acrylamide] | 150 to 152
Cn1ncc(/C=C/C(=O)Nc2ccc(Cc3nn(C)c(=O)o3)cc2)c1-c1ccc(F)cc1 [Example 119, (2E)-3-[5-(4-Fluorophenyl)-1-methyl-1H-pyrazol-4-yl]-N-{4-[(4-methyl-5-oxo-4,5-dihydro-1,3,4-oxadiazol-2-yl)methyl]phenyl}acrylamide] | 200 to 201
CCn1nc(Cc2ccc(NC(=O)/C=C/c3cnn(C)c3-c3ccc(F)cc3)cc2)oc1=O [Example 120, (2E)-N-{4-[(4-Ethyl-5-oxo-4,5-dihydro-1,3,4-oxadiazol-2-yl)methyl]phenyl}-3-[5-(4-fluorophenyl)-1-methyl-1H-pyrazol-4-yl]acrylamide] | 149 to 150
Cn1ncc(/C=C/C(=O)Nc2ccc3c(c2)oc(=O)n3C)c1-c1ccc(F)cc1 [Example 122, (2E)-3-[5-(4-Fluorophenyl)-1-methyl-1H-pyrazol-4-yl]-N-(3-methyl-2-oxo-2,3-dihydro-1,3-benzoxazol-6-yl)acrylamide] | 265 to 266
Cc1nc(Cc2ccc(NC(=O)/C=C/c3cnn(C)c3-c3ccc(F)cc3)cc2)sc1C [Example 123, (2E)-N-{4-[(4,5-Dimethyl-1,3-thiazol-2-yl)methyl]phenyl}-3-{5-(4-fluorophenyl)-1-methyl-1H-pyrazol-4-yl}acrylamide] | 210 to 211
